Assay [1] relates to VEGFR2. Nature of the assay: VEGFR2 auto-phosphorylation (agonism), anti-phospho-Tyr western blot in PAEC overexpressing VEGFR2. In kind it is cell-based. (In general: Immunoblotting shows a protein as a band on a membrane.)
The subject of assay [2] is C57 black mice. Nature of the assay: In vivo Matrigel plug angiogenesis assay. Conditions: 500 ng/plug, subcutaneous Matrigel, 10 days, implants inspected and haemoglobin content measured (Fig. 7B). The procedure: Figure 7 In vitro and in vivo angiogenic properties of EP peptides. (A) HUVECs were plated onto a layer of basement membrane matrix (Matrigel) and incubated at 37 °C for 18 h in the presence of EP3, EP5, EP6 and VEGF (50 ng/mL). After treatment, photomicrographs of tubular structures (Top) were quantified as angiogenic index, calculated as the number of complete circles counted/field by microscope image analysis (Bottom). *p < 0.05 vs basal control. (B) In vivo Matrigel angiogenesis assay was performed by injecting Matrigel solution containing 500 ng of the selected EP peptides into the dorsal midline region of C57 black mice. […] After 10 days Matrigel implants were recovered (Top) and analyzed for their haemoglobin content (bottom). *p < 0.05 and **p < 0.01 vs Matrigel alone.
The pro-angiogenic activity of EP peptides was evaluated by an in vivo test, using Matrigel plugs loaded with EP3, EP5 or EP6 peptides or VEGF (500 ng/plug). […] The hemoglobin content of explanted plugs was measured by a spectrophotometric assay (Fig. 7B, Bottom).
In vivo Matrigel angiogenesis assay was performed as previously described. […] Plugs were resuspended in 1 ml of Drabkin’s reagent for 18 h on ice and haemoglobin concentration was determined by absorbance at 540 nm and compared with a standard curve (Sigma-Aldrich, Milan, Italy).

Assay [3] relates to VEGFR2. Nature of the assay: Antagonism of VEGF-stimulated VEGFR2 phosphorylation, western blot in PAEC overexpressing VEGFR2. In kind it is cell-based.
Assay [4] deals with human umbilical vein endothelial cells (HUVECs). Nature of the assay: HUVEC proliferation assay (cell counting), with or without SU5614. Particulars: SU5614 (10 μM) alone, 0 ng/mL peptide, 72 h. In kind it is cell-based. The procedure: As the activation of ERK1/2 pathway in ECs leads to DNA synthesis and cell proliferation, we evaluated whether EP3, EP5 and EP6 peptides were able to stimulate cell growth. A proliferation assay was performed on human umbilical vein endothelial cells (HUVECs). Cells in starvation medium were incubated with increasing concentrations (0.5, 5 and 50 ng/mL) of the selected peptides and VEGF, and cell number was counted after 72 h. […] Cell survival was evaluated by MTT assay in PAEC-VEGFR2 following stimulation with EP6 and equimolar concentration with control peptides for 48 h.
The same proliferation assay was repeated in HUVEC in presence of the tyrosine kinase inhibitor SU5614 (Table 1). In the presence of the inhibitor, the proliferative effect of the EP peptides was suppressed, confirming that EP-induced proliferation was correlated to VEGFR2 phosphorylation.
Human Umbilical Vein Endothelial Cells (HUVECs) were purchased from Lonza (Basel, Switzerland). All experiments were performed on low passage cell cultures. […]
HUVECs were plated at density of 1500 cells/well in 96-well gelatin-coated microplates. […] Cell proliferation was evaluated as number of cells counted per well[35].

In assay [5] the target is T1, second domain of VEGFR1 (VEGFR1D2) (UniProt P17948 129-229).
T1 construct: VEGFR1 (vascular endothelial growth factor receptor 1), second domain; The shifts were mapped onto the NMR structure PDB 1QSV of VEGFR1D2; also called domain 2 of VEGFR1; source: recombinant; 15N-labeled for the HSQC titration
T1 sequence (P17948 129-229): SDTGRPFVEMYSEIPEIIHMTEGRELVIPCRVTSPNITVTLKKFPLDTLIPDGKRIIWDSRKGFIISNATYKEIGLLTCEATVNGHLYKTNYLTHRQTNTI
The experiment in a line: NMR titration; 2D [15N,1H] HSQC chemical shift perturbation; 110 μM 15N-labeled VEGFR1D2, EP6 added from 27.5 to 550 μM; 20 mM Tris-HCl pH 7.5, 0.02% sodium azide, 10% 2H2O; 298 K; single-site fit, overall apparent KD as mean over the residues of the binding site. Particulars: both partners purified.

Bridges are numbered along the chain shown (N, C = ends). [ ]: non-standard residue; d: D form. isopeptide = not defined here; Ahp = NCCCCCCC(=O)O

“Vascular Endothelial Growth Factor [VEGF]”: the “VEGFR2 phosphorylation, fold increase respect to Ctr” value in assay [1] (50 ng/mL each, 15 min at 37 °C, PAEC overexpressing VEGFR2, western blot quantification, anti-phospho-Tyr, gels representative of three experiments) is 6.5 ± 1.3 fold increase respect to Ctr. For the same molecule, the “VEGFR2 phosphorylation induced (in words)” value in assay [1] (50 ng/mL, 15 min, PAEC overexpressing VEGFR2 (Fig. 2A)) is “induced VEGFR2 phosphorylation”. The “blood vessel formation / angiogenesis in Matrigel plugs (in words)” value in assay [2] is reported as “blood vessel formation was observed”.

Take `Cc1cc(C)c(/C=C2\C(=O)Nc3ccc(Cl)cc32)[nH]1` [SU5614]: the “antagonism of VEGF-stimulated VEGFR2 phosphorylation (in words)” value in assay [3] (EP/control peptides 50 ng/mL 15 min, then VEGF 50 ng/mL 15 min, SU5614 10 μM (Fig. 2B)) is listed as “inhibited”. Also, the “VEGFR2 phosphorylation after VEGF, ∆ of fold increase respect to VEGF induced response” value in assay [3] (peptide 50 ng/mL pretreatment 15 min, then VEGF 50 ng/mL for additional 15 min, serum deprivation, SU5614 10 μM, western blot quantification, representative of three experiments) is reported as 0.15 ± 0.05 ∆ of fold increase respect to VEGF induced response. Further, the “HUVEC proliferation, cells counted/well” value in assay [4] is 63.5 ± 8.7 cells counted/well.

B1: EP6 peptide (mini-VEGF; AcHx ligated to Hn6) (peptide)
chain: Ac-EKFMDVYQLKYKGIC[Ahp]QIMRIKPHQGQHIGETS-NH2
modifications: bridge 1-15 via isopeptide; reading uncertain; also: two peptides Hx (1-14, C-terminal amide after Ile14) and Hn (15-33) joined by isopeptide bond
For the molecule B1, the Kd in assay [5] is 139 µM.

Values taken from PMC4976335, “Miniaturizing VEGF: Peptides mimicking the discontinuous VEGF receptor-binding site modulate the angiogenic response” (Scientific Reports, 2016).
